Values quoted from earlier work as cited in patent US10799550B2, “Oral compositions comprising beta-escin for reducing acetaldehyde toxicity” (ESCILAB SP. Z O.O., priority 2016, dated 2020).

System: ethanol absorption
Conditions: rats

Row | SMILES | effect on ethanol absorption
1 | C/C=C(\C)C(=O)O[C@H]1[C@H](OC(C)=O)[C@]2(CO)[C@H](O)C[C@]3(C)C(=CC[C@@H]4[C@@]5(C)CC[C@H](O[C@@H]6O[C@H](C(=O)O)[C@@H](O[C@@H]7O[C@H](CO)[C@@H](O)[C@H](O)[C@H]7O)[C@H](O)[C@H]6O[C@@H]6O[C@H](CO)[C@@H](O)[C@H](O)[C@H]6O)[C@](C)(CO)[C@@H]5CC[C@]43C)[C@@H]2CC1(C)C [escin Ia] | inhibitory effect
2 | C/C=C(/C)C(=O)O[C@H]1[C@H](OC(C)=O)[C@]2(CO)[C@H](O)C[C@]3(C)C(=CC[C@@H]4[C@@]5(C)CC[C@H](O[C@@H]6O[C@H](C(=O)O)[C@@H](O[C@@H]7O[C@H](CO)[C@@H](O)[C@H](O)[C@H]7O)[C@H](O)[C@H]6O[C@@H]6O[C@H](CO)[C@@H](O)[C@H](O)[C@H]6O)[C@](C)(CO)[C@@H]5CC[C@]43C)[C@@H]2CC1(C)C [escin Ib] | inhibitory effect
3 | C/C=C(/C)C(=O)O[C@H]1[C@H](OC(C)=O)[C@]2(CO)[C@H](O)C[C@]3(C)C(=CC[C@@H]4[C@@]5(C)CC[C@H](O[C@@H]6O[C@H](C(=O)O)[C@@H](O[C@@H]7O[C@H](CO)[C@@H](O)[C@H](O)[C@H]7O)[C@H](O)[C@H]6O[C@@H]6OC[C@@H](O)[C@H](O)[C@H]6O)[C@](C)(CO)[C@@H]5CC[C@]43C)[C@@H]2CC1(C)C [escin IIb] | inhibitory effect
4 | C/C=C(\C)C(=O)O[C@H]1[C@H](OC(C)=O)[C@]2(CO)[C@H](O)C[C@]3(C)C(=CC[C@@H]4[C@@]5(C)CC[C@H](O[C@@H]6O[C@H](C(=O)O)[C@@H](O[C@@H]7O[C@H](CO)[C@@H](O)[C@H](O)[C@H]7O)[C@H](O)[C@H]6O[C@@H]6OC[C@@H](O)[C@H](O)[C@H]6O)[C@](C)(CO)[C@@H]5CC[C@]43C)[C@@H]2CC1(C)C [escin IIa] | inhibitory effect
